Assay results from PubChem BioAssay (NCI).
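Grown in 96-well plates, cells were treated for 48 hours with each compound at five concentrations. Insufficient inhibition: endpoint recorded as highest concentration tested. TGI marks complete inhibition of growth.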

What was measured:
Test in all cases: NCI tumour cell line growth inhibition, 48 h
SW-620 colon = system: SW-620 colon
SF-268 CNS = system: SF-268 CNS
NCI-H460 lung = system: NCI-H460 lung
OVCAR-8 ovarian = system: OVCAR-8 ovarian
M14 melanoma = system: M14 melanoma
DMS 114 small cell lung = system: DMS 114 small cell lung
OVCAR-3 ovarian = system: OVCAR-3 ovarian

Measured: TGI

CCOC(=O)NC(=O)c1cn(CCNCCO)c(=O)[nH]c1=O
> 100 µM: SW-620 colon | SF-268 CNS | NCI-H460 lung | OVCAR-8 ovarian | M14 melanoma | DMS 114 small cell lung | OVCAR-3 ovarian
